Reference: ChEMBL document CHEMBL1201862, “PubChem BioAssay data set” (2004)
Active and inactive are the calls of the source.

Columns and labels:
[1] = biological target: Heat shock protein HSP 90-alpha (Homo sapiens, UniProt P07900); format: functional, organism-based
[2] = biological target: Cytochrome P450 2C9 (Homo sapiens, UniProt P11712)
[3] = biological target: T1, Polyadenylate-binding protein 1 (Homo sapiens, UniProt P11940); assay: PABP1 MLLE–PAM2 binding inhibitor potency, dose response, biochemical, fluorescence polarization, FITC-PAM2 peptide (AID 602259); format: functional; conditions: read-out: IC50_Mean
[4] = biological target: T1, Polyadenylate-binding protein 1; assay: PABP1 MLLE–PAM2 interaction inhibitors, dose response, miRNA deadenylation inhibitor project, biochemical, fluorescence polarization, Cy5-PAM2 peptide, secondary (AID 602260); format: functional; conditions: read-out: IC50_Mean
[5] = inhibitors of intracellular T. cruzi replication, confirmation, NIH3T3 host cells, beta-gal luminescence (AID 2044); format: functional, cell-based;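 further: intracellular parasites grown in NIH/3T3 mouse fibroblasts as host cells; luminescent beta-galactosidase reporter signal from transgenic T. cruzi replicating inside host cells; inhibitors lower the luminescence signal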
[6] = cytotoxicity toward NIH3T3 fibroblasts, dose response, counter-screen, cell-based, ATP luminescence, mouse fibroblasts (AID 2010); format: functional;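 further: cells exposed to compound for about 90 hours before reading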
[7] = Luminescence Cell-Based Dose Retest to Confirm Inhibitors of Cancer Stem Cells. [Related pubchem assays (depositor defined):AID2717, AID2721]; format: functional; conditions: Homo sapiens
[8] = growth suppression of beta-catenin-knockout colon cells, dose response, cell-based, HCT116, human colon tumor (AID 1045); format: functional;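 further: HCT116 colon tumor cells with beta catenin knocked out; cells exposed to compound for 60 hours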
[9] = biological target: T2, Ubiquitin-conjugating enzyme E2 N (Homo sapiens, UniProt P61088); format: functional;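 further: Dose-response confirmation in a TR-FRET assay detecting UBC13-driven polyubiquitin chain formation, inhibition measured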
T2 sequence (P61088 whole entry): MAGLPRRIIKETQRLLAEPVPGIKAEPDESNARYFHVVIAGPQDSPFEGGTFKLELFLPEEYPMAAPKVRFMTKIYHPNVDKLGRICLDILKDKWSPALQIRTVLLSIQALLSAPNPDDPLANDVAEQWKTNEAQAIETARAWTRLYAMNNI

[10] = growth suppression of PTEN-null colon cells, dose response, cell-based, HCT116 PTEN knockout (AID 1047); format: functional;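 further: HCT116 colon tumor cells with PTEN knocked out; cells exposed to compound for 60 hours before readout; potency for loss of cell viability measured by luminescence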
[11] = biological target: T3, Cytochrome P450 1A2 (Homo sapiens, UniProt P05177);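 further: PubChem cytochrome P450 panel assay, CYP1A2 panel member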
T3 sequence (P05177 whole entry): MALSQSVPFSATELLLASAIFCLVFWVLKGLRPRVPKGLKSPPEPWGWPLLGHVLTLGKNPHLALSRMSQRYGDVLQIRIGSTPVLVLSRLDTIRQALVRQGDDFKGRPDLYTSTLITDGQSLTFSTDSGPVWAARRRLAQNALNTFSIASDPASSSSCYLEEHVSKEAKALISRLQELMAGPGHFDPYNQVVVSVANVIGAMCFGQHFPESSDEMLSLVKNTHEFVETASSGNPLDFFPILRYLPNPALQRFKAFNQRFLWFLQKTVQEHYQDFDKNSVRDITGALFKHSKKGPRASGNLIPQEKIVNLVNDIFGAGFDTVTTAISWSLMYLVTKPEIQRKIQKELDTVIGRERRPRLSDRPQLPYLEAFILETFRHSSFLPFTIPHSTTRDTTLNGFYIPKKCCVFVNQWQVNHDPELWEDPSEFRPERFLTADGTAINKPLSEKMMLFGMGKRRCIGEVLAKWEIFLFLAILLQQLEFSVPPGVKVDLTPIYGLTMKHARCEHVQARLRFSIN

[12] = biological target: Voltage-dependent T-type calcium channel subunit alpha-1H (Homo sapiens, UniProt O95180); format: functional;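 further: channel activity triggered by adding a high calcium stimulation buffer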
[13] = biological target: Cytochrome P450 2D6 (Homo sapiens, UniProt P10635);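 further: CYP2D6 member of a cytochrome P450 panel assay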
[14] = inhibitors of clade B AD8 Env fusion, dose response, cell-based, cherry-pick (AID 652062); format: functional;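 further: luciferase signal from cell-cell fusion driven by HIV-1 clade B AD8 Env; potency is for inhibitors of fusion seen as a drop in luminescence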
[15] = biological target: Cytochrome P450 3A4 (Homo sapiens, UniProt P08684);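 further: CYP3A4 tested as one member of a cytochrome P450 panel screen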
[16] = biological target: T4, High affinity choline transporter 1 (Homo sapiens, UniProt Q9GZV3); assay: CHT inhibitors, dose response, cell-based, 5-point CRC, membrane potential dye (AID 504840); format: functional
T4 sequence (Q9GZV3 whole entry): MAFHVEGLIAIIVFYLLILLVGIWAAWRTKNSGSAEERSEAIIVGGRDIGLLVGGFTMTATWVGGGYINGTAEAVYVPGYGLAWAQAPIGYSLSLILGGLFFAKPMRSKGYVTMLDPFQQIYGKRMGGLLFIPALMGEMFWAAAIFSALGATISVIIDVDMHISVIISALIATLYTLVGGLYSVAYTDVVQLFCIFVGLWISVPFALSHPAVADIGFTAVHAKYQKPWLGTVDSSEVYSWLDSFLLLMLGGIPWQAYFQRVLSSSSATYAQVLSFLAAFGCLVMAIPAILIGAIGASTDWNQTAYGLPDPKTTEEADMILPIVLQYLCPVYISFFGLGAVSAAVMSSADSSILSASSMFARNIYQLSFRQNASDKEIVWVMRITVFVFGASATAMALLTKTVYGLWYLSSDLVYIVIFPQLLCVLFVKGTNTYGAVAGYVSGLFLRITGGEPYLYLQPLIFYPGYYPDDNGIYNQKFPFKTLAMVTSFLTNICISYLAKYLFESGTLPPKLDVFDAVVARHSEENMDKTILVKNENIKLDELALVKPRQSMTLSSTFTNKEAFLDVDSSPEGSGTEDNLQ

[17] = biological target: T5, Protein RecA (Mycobacterium tuberculosis, UniProt P9WHJ3); assay: Fluorescence Cell-Free Homogeneous Dose Retest to Identify Inhibitors of RecA-Intein Splicing Activity. [Related pubchem assays (depositor defined):AID2097, AID2223, AID489010, AID492950]; format: functional
T5 sequence (P9WHJ3 whole entry): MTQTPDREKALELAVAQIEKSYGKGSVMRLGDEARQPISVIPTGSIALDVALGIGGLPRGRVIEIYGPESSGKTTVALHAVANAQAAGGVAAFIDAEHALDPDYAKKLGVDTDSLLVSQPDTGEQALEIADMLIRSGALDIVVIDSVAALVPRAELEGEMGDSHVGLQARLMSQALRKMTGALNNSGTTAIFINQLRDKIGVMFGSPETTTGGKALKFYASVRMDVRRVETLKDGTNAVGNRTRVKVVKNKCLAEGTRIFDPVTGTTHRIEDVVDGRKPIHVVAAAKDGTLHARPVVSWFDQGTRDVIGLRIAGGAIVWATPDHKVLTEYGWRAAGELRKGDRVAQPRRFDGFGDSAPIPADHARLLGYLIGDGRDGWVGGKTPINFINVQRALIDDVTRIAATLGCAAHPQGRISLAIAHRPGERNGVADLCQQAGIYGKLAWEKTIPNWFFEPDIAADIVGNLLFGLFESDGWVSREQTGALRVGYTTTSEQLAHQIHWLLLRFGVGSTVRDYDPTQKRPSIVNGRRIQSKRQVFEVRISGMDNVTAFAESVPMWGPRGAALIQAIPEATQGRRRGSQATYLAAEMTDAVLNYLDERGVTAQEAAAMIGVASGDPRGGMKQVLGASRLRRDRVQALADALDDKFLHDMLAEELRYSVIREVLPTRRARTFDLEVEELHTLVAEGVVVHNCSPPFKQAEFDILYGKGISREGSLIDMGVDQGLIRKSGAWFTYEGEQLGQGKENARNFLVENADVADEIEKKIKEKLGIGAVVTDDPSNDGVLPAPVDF

[18] = biological target: T6, Replicative DNA helicase DnaB (Mycobacterium tuberculosis, UniProt P9WMR3); assay: DnaB intein splicing inhibitors, dose response, biochemical, cell-free fluorescence (AID 449749); format: functional
T6 sequence (P9WMR3 whole entry): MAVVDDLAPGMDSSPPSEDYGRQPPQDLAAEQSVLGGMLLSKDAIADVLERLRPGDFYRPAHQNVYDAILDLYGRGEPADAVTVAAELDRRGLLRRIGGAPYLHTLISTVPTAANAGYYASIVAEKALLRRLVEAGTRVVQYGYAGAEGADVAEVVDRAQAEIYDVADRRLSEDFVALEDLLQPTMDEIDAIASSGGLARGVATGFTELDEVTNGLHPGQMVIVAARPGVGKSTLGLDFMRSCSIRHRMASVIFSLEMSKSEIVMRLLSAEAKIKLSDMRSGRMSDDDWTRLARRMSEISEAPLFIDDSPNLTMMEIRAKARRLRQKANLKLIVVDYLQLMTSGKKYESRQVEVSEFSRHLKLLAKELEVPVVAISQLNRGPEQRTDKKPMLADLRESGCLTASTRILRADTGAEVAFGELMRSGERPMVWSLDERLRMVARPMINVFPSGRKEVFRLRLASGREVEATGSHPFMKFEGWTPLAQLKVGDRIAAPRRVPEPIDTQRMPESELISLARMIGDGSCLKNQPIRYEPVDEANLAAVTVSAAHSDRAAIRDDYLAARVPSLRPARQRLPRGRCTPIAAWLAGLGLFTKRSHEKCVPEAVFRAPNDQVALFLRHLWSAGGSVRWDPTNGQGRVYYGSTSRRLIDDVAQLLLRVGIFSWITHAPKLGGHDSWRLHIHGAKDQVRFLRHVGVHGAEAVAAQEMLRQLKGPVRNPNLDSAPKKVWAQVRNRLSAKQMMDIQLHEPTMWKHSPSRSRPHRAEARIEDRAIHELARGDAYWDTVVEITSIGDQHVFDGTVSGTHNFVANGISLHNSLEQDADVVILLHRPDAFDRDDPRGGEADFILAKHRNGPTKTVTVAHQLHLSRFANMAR

[19] = biological target: Cytochrome P450 2C19 (Homo sapiens, UniProt P33261); assay: Cytochrome panel assay with activity outcomes. Panel member name: p450-cyp2c19 Compounds with AC50 equal or less than 10 uM are considered active; format: functional; conditions: read-out: AC50
[20] = biological target: Large T antigen (Simian virus 40, UniProt P03070); format: functional, Betapolyomavirus macacae;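 further: Confirmatory-stage PubChem screen for compounds that inhibit SV40 T antigen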

Sequence of Cytochrome P450 2C9 (P11712 whole entry): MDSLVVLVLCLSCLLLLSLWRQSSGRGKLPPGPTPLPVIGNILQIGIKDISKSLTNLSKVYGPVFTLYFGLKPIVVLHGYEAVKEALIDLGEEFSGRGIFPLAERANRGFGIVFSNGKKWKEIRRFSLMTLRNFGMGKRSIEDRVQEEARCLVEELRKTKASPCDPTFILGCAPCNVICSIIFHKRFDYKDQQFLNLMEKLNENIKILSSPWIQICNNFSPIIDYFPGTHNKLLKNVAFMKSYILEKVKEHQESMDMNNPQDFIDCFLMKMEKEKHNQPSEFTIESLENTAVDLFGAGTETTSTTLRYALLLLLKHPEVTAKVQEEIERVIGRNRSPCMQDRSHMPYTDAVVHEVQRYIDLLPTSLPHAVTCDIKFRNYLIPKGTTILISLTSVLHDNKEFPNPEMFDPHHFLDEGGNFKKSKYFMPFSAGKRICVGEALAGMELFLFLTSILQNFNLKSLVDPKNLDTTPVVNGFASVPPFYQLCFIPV
T1 sequence (P11940 whole entry): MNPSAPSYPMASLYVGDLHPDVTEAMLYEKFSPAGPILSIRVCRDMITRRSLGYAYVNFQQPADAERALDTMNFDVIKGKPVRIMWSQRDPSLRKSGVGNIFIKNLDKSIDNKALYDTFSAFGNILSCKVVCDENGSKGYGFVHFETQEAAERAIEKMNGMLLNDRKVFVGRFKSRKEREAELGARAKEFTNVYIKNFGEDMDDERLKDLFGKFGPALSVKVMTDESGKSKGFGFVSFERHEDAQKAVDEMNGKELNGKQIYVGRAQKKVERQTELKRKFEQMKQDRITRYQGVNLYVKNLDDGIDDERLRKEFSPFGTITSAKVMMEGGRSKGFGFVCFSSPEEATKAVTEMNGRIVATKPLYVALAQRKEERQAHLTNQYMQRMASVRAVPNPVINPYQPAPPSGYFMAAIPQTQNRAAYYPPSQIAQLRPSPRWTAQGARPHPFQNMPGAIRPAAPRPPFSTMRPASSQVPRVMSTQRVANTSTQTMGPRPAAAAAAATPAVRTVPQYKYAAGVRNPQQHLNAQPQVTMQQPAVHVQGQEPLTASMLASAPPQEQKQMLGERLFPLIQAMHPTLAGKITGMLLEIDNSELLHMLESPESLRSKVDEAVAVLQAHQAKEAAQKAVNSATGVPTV
Sequence of Voltage-dependent T-type calcium channel subunit alpha-1H (O95180 whole entry): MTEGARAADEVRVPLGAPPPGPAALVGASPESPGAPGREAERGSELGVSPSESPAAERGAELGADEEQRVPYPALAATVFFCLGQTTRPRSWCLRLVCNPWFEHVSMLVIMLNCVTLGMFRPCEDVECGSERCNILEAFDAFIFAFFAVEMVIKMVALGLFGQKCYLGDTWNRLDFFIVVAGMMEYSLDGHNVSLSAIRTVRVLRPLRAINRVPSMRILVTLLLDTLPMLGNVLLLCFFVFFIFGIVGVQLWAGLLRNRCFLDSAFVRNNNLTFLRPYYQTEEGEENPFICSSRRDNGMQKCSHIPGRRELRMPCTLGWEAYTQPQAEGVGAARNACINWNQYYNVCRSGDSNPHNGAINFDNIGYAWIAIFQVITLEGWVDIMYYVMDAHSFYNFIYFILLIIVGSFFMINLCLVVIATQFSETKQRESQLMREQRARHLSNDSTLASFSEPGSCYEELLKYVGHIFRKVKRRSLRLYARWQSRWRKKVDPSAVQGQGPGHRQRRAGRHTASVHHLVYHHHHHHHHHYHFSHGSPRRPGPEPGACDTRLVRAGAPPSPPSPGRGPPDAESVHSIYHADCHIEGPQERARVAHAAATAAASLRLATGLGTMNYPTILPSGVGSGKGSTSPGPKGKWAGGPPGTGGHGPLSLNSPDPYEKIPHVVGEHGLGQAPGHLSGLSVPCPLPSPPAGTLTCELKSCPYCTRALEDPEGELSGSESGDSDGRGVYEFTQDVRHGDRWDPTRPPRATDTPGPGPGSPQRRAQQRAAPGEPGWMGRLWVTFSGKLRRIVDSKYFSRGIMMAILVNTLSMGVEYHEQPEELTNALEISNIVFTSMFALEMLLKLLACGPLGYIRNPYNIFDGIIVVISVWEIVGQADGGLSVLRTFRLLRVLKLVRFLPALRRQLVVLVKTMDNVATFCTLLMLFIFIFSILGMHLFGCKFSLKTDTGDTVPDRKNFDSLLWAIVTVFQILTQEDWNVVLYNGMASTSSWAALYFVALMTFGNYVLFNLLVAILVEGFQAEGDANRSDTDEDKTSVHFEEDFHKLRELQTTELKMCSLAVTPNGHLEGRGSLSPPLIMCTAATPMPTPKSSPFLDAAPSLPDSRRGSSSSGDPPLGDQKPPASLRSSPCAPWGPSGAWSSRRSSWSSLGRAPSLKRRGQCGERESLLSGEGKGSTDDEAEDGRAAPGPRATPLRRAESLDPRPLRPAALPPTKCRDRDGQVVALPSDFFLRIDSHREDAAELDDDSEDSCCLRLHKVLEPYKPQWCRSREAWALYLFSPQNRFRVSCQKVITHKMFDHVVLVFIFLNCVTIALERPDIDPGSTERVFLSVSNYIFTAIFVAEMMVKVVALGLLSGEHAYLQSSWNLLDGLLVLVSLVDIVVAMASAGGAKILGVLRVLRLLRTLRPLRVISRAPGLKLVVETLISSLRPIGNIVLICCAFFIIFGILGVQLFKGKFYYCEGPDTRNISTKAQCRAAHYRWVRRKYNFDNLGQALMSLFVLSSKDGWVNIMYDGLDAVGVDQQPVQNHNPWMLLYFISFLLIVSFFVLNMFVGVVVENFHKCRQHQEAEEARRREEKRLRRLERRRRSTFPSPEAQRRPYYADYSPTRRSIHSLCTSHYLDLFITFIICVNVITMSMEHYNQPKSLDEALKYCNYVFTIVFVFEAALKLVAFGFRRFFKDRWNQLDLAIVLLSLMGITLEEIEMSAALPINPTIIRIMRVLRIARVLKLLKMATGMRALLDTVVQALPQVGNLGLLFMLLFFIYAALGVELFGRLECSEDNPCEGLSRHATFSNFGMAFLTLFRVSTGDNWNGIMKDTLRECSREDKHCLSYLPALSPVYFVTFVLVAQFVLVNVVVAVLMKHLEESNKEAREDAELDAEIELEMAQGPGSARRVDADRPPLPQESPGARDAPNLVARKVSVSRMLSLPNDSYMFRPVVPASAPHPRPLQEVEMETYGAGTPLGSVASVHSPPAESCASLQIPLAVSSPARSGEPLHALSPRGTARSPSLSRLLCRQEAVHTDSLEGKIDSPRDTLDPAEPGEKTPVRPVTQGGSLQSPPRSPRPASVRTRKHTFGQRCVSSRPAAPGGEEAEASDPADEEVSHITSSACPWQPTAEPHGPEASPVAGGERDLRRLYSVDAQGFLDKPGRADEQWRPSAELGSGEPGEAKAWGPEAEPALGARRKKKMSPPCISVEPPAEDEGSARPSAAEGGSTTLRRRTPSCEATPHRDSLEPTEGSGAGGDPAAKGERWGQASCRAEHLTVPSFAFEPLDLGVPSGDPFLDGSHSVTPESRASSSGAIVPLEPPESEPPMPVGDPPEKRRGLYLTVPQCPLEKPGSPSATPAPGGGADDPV
Sequence of Cytochrome P450 2D6 (P10635 whole entry, the tested form may be a part): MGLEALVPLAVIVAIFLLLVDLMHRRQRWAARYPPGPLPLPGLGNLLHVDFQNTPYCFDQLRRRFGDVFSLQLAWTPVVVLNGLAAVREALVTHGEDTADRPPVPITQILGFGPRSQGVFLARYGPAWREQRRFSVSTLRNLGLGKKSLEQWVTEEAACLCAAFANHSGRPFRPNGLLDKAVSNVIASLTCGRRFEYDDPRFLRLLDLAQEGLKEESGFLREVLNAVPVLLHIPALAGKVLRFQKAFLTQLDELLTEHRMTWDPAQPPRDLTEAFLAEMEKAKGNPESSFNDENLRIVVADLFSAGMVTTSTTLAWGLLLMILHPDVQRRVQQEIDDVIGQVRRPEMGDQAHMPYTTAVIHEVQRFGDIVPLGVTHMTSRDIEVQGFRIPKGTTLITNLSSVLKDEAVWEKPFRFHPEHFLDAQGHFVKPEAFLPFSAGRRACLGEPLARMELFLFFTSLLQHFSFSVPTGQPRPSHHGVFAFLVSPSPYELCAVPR
Sequence of Cytochrome P450 3A4 (P08684 whole entry): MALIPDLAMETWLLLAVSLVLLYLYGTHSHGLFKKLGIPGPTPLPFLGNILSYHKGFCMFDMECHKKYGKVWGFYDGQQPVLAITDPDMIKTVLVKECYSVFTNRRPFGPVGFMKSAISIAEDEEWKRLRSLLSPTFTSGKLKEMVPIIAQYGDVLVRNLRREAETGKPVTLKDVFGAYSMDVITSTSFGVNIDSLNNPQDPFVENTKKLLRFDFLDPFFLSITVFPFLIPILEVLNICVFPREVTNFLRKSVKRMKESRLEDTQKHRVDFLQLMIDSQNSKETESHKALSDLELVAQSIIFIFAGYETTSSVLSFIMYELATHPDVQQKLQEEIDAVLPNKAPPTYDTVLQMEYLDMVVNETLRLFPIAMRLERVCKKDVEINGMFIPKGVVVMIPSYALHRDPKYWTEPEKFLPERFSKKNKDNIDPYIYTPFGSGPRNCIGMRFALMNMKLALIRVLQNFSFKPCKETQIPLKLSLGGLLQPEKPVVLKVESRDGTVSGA
Sequence of Cytochrome P450 2C19 (P33261 whole entry): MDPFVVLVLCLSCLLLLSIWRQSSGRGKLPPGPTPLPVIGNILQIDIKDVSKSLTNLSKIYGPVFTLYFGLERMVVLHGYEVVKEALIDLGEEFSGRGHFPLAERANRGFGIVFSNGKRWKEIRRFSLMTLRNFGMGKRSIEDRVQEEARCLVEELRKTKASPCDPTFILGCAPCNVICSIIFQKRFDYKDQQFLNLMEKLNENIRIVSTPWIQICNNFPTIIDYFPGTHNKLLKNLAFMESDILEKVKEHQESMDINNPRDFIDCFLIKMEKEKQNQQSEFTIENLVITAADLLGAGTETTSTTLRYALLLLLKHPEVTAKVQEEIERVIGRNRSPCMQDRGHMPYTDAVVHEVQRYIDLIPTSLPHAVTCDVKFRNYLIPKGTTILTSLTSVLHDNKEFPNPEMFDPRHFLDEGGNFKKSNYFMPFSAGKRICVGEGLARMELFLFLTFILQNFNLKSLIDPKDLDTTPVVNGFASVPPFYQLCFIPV

SMILES: Cc1cc(N2CCN(C(=O)c3ccco3)CC2)n2ncc(-c3ccccc3)c2n1
- AC50 [1]: 2.23 µM (active)

SMILES: Cc1ccc(S(=O)(=O)N[C@H]2COC(=O)C/C=C\[C@@H](C)COC(=O)C/C=C\[C@@H]2C)cc1
- AC50 [2]: inconclusive

SMILES: CN1C(=O)SC(Nc2ccccc2C(=O)O)C1=O (centres undefined)
- IC50 [3]: > 66 µM (inactive)
- IC50 [4]: > 66 µM (inactive)

SMILES: COc1ccc(Sc2nnc(Cc3ccccc3)c3ccccc23)cc1
- IC50 [3]: > 66 µM (inactive)
- IC50 [4]: > 66 µM (inactive)

SMILES: COc1cc(CNCCc2c[nH]c3ccccc23)ccc1OCc1ccccc1F
- EC50 [5]: 0.196 µM (active)
- EC50 [6]: > 60 µM (inconclusive)
- AC50 [7]: 4.72 µM (active)
- EC50 [8]: 13.6 µM (active)
- IC50 [9]: > 20 µM (inactive)
- EC50 [10]: 15.3 µM (active)

SMILES: CN(C)/C=C/C(=O)c1ccc2noc(-c3cccc(F)c3)c2c1
- AC50 [1]: 7.95 µM (active)

SMILES: CCN(CC)c1ccc(/C=C2/C(=O)NC(=O)N(CC3CCCO3)C2=O)cc1 (centres undefined)
- AC50 [2]: inconclusive

SMILES: CN1CCN(c2ncc3nc(-c4cc(F)cc(F)c4)c(=O)n(C)c3n2)CC1
- AC50 [11]: 5.01 µM (inconclusive)
- AC50 [2]: inconclusive

SMILES: CCC(c1nnnn1C(C)(C)C)N1CCN(c2cc(Cl)ccc2C)CC1 (centres undefined)
- EC50 [12]: 5.94 µM (active)

SMILES: Cc1cnc(CNc2ccnc(-c3cccnc3)n2)cn1
- AC50 [13]: 25.1 µM (inconclusive)
- AC50 [2]: inconclusive

SMILES: CCc1cc2c(NCc3ccco3)ncnc2s1
- AC50 [14]: 32.3 µM (active)
- AC50 [15]: 25.1 µM (inconclusive)
- IC50 [16]: 10 µM (active)

SMILES: Cc1ccc(-c2nnc(CSc3nnc(COc4ccccc4)n3-c3ccccc3)o2)cc1
- EC50 [12]: 3.32 µM (active)

SMILES: CC1CCCCN1CCNC(=O)c1ccc2c(=O)n(Cc3ccc(Cl)cc3)c(=S)[nH]c2c1 (centres undefined)
- IC50 [9]: > 20 µM (inactive)

SMILES: CN1CCN(C(=S)NC(=O)c2ccc(S(=O)(=O)N3CCOCC3)cc2)CC1
- IC50 [3]: > 66 µM (inactive)
- IC50 [4]: > 66 µM (inactive)

SMILES: COc1ccccc1N1CCN(CC(=O)c2c(C)[nH]c3cc(C)ccc23)CC1
- EC50 [17]: 94.2 µM (active)
- EC50 [12]: 5.63 µM (active)
- AC50 [18]: 5.47 µM (active)

SMILES: Cc1ccc(C(c2nnnn2C(C)(C)C)N(Cc2ccco2)Cc2cccs2)cc1 (centres undefined)
- EC50 [5]: 2.26 µM (active)
- EC50 [6]: > 30 µM (not active)
- EC50 [12]: 6.33 µM (active)

SMILES: COC(=O)c1c(NC(=O)c2nc3ccccc3s2)sc2c1CCN(C(C)=O)C2
- IC50 [9]: > 20 µM (inactive)

SMILES: COc1ccccc1N1CCN(C(c2ccccc2Cl)c2nnnn2C(C)(C)C)CC1 (centres undefined)
- EC50 [12]: 11.7 µM (active)

SMILES: COc1ccc(C(CNC(=O)c2cc3c(s2)CCC(C)C3)N2CCCC2)cc1 (centres undefined)
- IC50 [9]: > 20 µM (inactive)

SMILES: O=C(Nc1cccc(S(=O)(=O)NC2=NCCC2)c1)c1cc(Cl)ccc1[N+](=O)[O-]
- IC50 [16]: 11.8 µM (active)

SMILES: CC(C)[C@@H]1CN=C(N)N1C[C@@H]1CCCN1C[C@H](C)N1C[C@@H](Cc2ccccc2)N(CCc2ccc(Cl)c(Cl)c2)C1=N
- IC50 [9]: > 20 µM (inactive)

SMILES: Cc1cc(C)cc(NC(=O)CCc2nc3ccccc3[nH]2)c1
- AC50 [11]: 3.16 µM (inconclusive)
- AC50 [2]: inconclusive

SMILES: C/C(=N\OC(=O)c1cccc(C)c1)c1sc(-c2ccccc2)nc1C
- AC50 [19]: 8.91 µM (inconclusive)
- AC50 [2]: inconclusive

SMILES: O=C1C=CC(=O)N1c1ccc(O)cc1
- AC50 [1]: 3.13 µM (active)
- IC50 [20]: 81 µM (active)

SMILES: Nc1ccc(S(=O)(=O)Nc2nccs2)cc1 [SULFATHIAZOLE]
- AC50 [2]: inconclusive
